What all share (format): cell-based
The target of assay [1] is T1, GLP-1R (Homo sapiens, UniProt P43220). In words: HitHunter cAMP assay (GLP-1R). Conditions: cAMP; for Emax: read-out: (Emax) GLP-1R. In outline:
(§1)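 cAMP, luminescence read: agonist 22-pt 2× dilution in DMSO, duplicate, 30 min RT on 10,000 cells/well in 1×HBSS/10 mM HEPES/625 μM IBMX/0.2% BSA; anti-cAMP reagent 1 h RT dark, then O/N RT dark before read.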
(cAMP levels reflect the balance of adenylyl cyclase and phosphodiesterase activity.)

For assay [2], the target named is T1, GLP-1R. In words: PathHunter β-arrestin assay. The gist of the method: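 Luminescence read-out of β-arrestin recruitment (enzyme-fragment complementation detection, 3 h at room temperature in the dark) after 90 min agonist stimulation at 37 °C. Agonists tested as 22-point 2× serial dilutions in duplicate, in medium containing 0.2% BSA.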
In assay [3] the target is T2, GIP-R (Homo sapiens, UniProt P48546).
T2 sequence (P48546 22-466): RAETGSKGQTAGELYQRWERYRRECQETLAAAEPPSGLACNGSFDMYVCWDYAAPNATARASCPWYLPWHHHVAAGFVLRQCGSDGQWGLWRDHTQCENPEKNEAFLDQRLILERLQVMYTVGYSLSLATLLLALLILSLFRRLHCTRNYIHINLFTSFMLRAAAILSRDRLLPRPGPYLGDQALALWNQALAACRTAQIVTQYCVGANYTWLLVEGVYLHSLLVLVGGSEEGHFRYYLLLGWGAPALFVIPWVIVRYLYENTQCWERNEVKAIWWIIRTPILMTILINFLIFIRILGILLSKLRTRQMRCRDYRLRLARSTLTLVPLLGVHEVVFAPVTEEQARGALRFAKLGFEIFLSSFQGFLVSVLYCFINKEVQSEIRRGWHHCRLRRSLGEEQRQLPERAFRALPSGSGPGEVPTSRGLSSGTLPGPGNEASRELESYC
In words: HitHunter cAMP assay (GIP-R). Conditions: cAMP; for Emax: read-out: (Emax) GIP-R. The gist of the method: as §1

Like-named read-outs stand apart in the source and are kept apart here. Square brackets hold non-standard residues; d marks the D form. Peptide text beside a SMILES is read from it. * marks the point of attachment. X1 = O=C(CSCC(=O)*)NCCN1C(=O)c2ccccc2C1=O; Aib = CC(C)(N)C(=O)O Bounds are passed on as bounds.

T1 sequence (P43220 24-463): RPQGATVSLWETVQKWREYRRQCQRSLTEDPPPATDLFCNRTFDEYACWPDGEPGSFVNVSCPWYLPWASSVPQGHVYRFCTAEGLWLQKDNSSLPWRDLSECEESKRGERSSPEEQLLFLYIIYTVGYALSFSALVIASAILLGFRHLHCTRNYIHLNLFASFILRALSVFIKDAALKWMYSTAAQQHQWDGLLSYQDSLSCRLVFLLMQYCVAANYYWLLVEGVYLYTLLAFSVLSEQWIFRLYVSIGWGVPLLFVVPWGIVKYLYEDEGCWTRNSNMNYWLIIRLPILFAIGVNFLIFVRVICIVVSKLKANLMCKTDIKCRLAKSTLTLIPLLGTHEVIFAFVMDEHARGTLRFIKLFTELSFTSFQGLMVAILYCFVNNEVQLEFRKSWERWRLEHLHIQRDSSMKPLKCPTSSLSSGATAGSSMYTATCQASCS

As to `CCCCCCCCCCCCCCCC(=O)N[C@@H](CCC(=O)NCCCC[C@H](NC(=O)[C@H](CO)NC(=O)[C@@H]1CCCN1C(=O)[C@@H]1CCCN1C(=O)[C@@H]1CCCN1C(=O)[C@H](C)NC(=O)CNC(=O)[C@H](CO)NC(=O)[C@H](CO)NC(=O)[C@@H]1CCCN1C(=O)CNC(=O)CNC(=O)[C@H](C)NC(=O)[C@H](CC(C)C)NC(=O)[C@H](CC(C)C)NC(=O)[C@H](Cc1c[nH]c2ccccc12)NC(=O)[C@H](CC(N)=O)NC(=O)[C@@H](NC(=O)[C@H](Cc1ccccc1)NC(=O)[C@H](CCC(=O)O)NC(=O)C(C)(C)NC(=O)[C@H](C)NC(=O)[C@H](C)NC(=O)[C@H](CCC(N)=O)NC(=O)[C@H](CCCCN)NC(=O)[C@H](CC(=O)O)NC(=O)[C@H](CC(C)C)NC(=O)[C@H](Cc1ccc(O)cc1)NC(=O)[C@@H](NC(=O)[C@H](CO)NC(=O)[C@H](Cc1ccc(O)cc1)NC(=O)[C@H](CC(=O)O)NC(=O)[C@H](CO)NC(=O)[C@@H](NC(=O)[C@H](Cc1ccccc1)NC(=O)[C@@H](NC(=O)CNC(=O)[C@H](CCC(=O)O)NC(=O)CSCC(=O)NCCN1CCNC(=O)C1=O)[C@@H](C)O)[C@@H](C)O)[C@@H](C)CC)C(C)C)C(N)=O)C(=O)O` [Compound 24], the EC50 in assay [1] (EC50 GLP-1R/nM, Table 3) was 0.1 to 1 nM; in assay [1] (EC50 GLP-1R/nM, Table 3A), 0.1 to 1 nM; in assay [2], over 1000 nM; in assay [3] (EC50 GIP-R/nM, Table 3), 1 to 10 nM; in assay [3] (EC50 GIP-R/nM, Table 3A), 100 to 1000 nM. Further, the maximum response (Emax) in assay [1] (Table 3) was 92%; in assay [1] (Table 3A) it was 92%; in assay [3] (Table 3), 15%; in assay [3] (Table 3A) it was 15%.
Consider `CC[C@H](C)[C@H](NC(=O)[C@H](CO)NC(=O)[C@H](CC(C)C)NC(=O)[C@H](CC(=O)O)NC(=O)[C@H](CO)NC(=O)[C@@H](NC(=O)[C@H](Cc1ccccc1)NC(=O)[C@@H](NC(=O)CNC(=O)[C@H](CCC(=O)O)NC(=O)CSCC(=O)NCCN1C(=O)c2ccccc2C1=O)[C@@H](C)O)[C@@H](C)O)C(=O)N[C@@H](Cc1ccc(O)cc1)C(=O)N[C@@H](CC(C)C)C(=O)N[C@@H](CC(=O)O)C(=O)N[C@@H](CCCCN)C(=O)N[C@@H](CCC(N)=O)C(=O)N[C@@H](C)C(=O)N[C@@H](C)C(=O)NC(C)(C)C(=O)N[C@@H](CCC(=O)O)C(=O)N[C@@H](Cc1ccccc1)C(=O)N[C@H](C(=O)N[C@@H](CC(N)=O)C(=O)N[C@@H](Cc1c[nH]c2ccccc12)C(=O)N[C@@H](CC(C)C)C(=O)N[C@@H](CC(C)C)C(=O)N[C@@H](C)C(=O)NCC(=O)NCC(=O)N1CCC[C@H]1C(=O)N[C@@H](CO)C(=O)N[C@@H](CO)C(=O)NCC(=O)N[C@@H](C)C(=O)N1CCC[C@H]1C(=O)N1CCC[C@H]1C(=O)N1CCC[C@H]1C(=O)N[C@@H](CO)C(=O)N[C@@H](CCCCN)C(N)=O)C(C)C` [Compound 151] (X1-EGTFTSDLSIYLDKQAA[Aib]EFVNWLLAGGPSSGAPPPSK-NH2), for which the EC50 in assay [1] (EC50 GLP-1R/nM, Table 3) was 1 to 10 nM; in assay [1] (EC50 GLP-1R/nM, Table 3A), 1 to 10 nM; in assay [2], over 1000 nM; in assay [3] (EC50 GIP-R/nM, Table 3) it was 0.1 to 1 nM; in assay [3] (EC50 GIP-R/nM, Table 3A) it was 0.1 to 1 nM. Besides, the Emax in assay [1] (Table 3) lay within 103 to 107%; in assay [1] (Table 3A) it was 103 to 107%; in assay [3] (Table 3), 117 to 119%; in assay [3] (Table 3A), 117 to 119%.
On to `CC[C@H](C)[C@H](NC(=O)[C@H](CO)NC(=O)[C@H](Cc1ccc(O)cc1)NC(=O)[C@H](CC(=O)O)NC(=O)[C@H](CO)NC(=O)[C@@H](NC(=O)[C@H](Cc1ccccc1)NC(=O)[C@@H](NC(=O)CNC(=O)[C@H](CCC(=O)O)NC(=O)CCC(=O)NCCN1C(=O)c2ccccc2C1=O)[C@@H](C)O)[C@@H](C)O)C(=O)N[C@@H](Cc1ccc(O)cc1)C(=O)N[C@@H](CC(C)C)C(=O)N[C@@H](CC(=O)O)C(=O)N[C@@H](CCCCN)C(=O)N[C@@H](CCC(N)=O)C(=O)N[C@@H](C)C(=O)N[C@@H](C)C(=O)NC(C)(C)C(=O)N[C@@H](CCC(=O)O)C(=O)N[C@@H](Cc1ccccc1)C(=O)N[C@H](C(=O)N[C@@H](CC(N)=O)C(=O)N[C@@H](Cc1c[nH]c2ccccc12)C(=O)N[C@@H](CC(C)C)C(=O)N[C@@H](CC(C)C)C(=O)N[C@@H](C)C(=O)NCC(=O)NCC(=O)N1CCC[C@H]1C(=O)N[C@@H](CO)C(=O)N[C@@H](CO)C(=O)NCC(=O)N[C@@H](C)C(=O)N1CCC[C@H]1C(=O)N1CCC[C@H]1C(=O)N1CCC[C@H]1C(=O)N[C@@H](CO)C(=O)N[C@@H](CCCCN)C(N)=O)C(C)C` [Compound 187], for which the EC50 was 10 to 100 nM in assay [1] (EC50 GLP-1R/nM, Table 3); 10 to 100 nM in assay [1] (EC50 GLP-1R/nM, Table 3A); over 1000 nM in assay [2]; 10 to 100 nM in assay [3] (EC50 GIP-R/nM, Table 3); 10 to 100 nM in assay [3] (EC50 GIP-R/nM, Table 3A). For the same molecule, the Emax was found to be 89% in assay [1] (Table 3), 89% in assay [1] (Table 3A), 58% in assay [3] (Table 3) and 58% in assay [3] (Table 3A).
As to `CCCCCCCCCCCCCCCC(=O)N[C@@H](CCC(=O)NCCCC[C@H](NC(=O)[C@H](CO)NC(=O)[C@@H]1CCCN1C(=O)[C@@H]1CCCN1C(=O)[C@@H]1CCCN1C(=O)[C@H](C)NC(=O)CNC(=O)[C@H](CO)NC(=O)[C@H](CO)NC(=O)[C@@H]1CCCN1C(=O)CNC(=O)CNC(=O)[C@H](C)NC(=O)[C@H](CC(C)C)NC(=O)[C@H](CC(C)C)NC(=O)[C@H](Cc1c[nH]c2ccccc12)NC(=O)[C@H](CC(N)=O)NC(=O)[C@@H](NC(=O)[C@H](Cc1ccccc1)NC(=O)[C@H](CCC(=O)O)NC(=O)C(C)(C)NC(=O)[C@H](C)NC(=O)[C@H](C)NC(=O)[C@H](CCC(N)=O)NC(=O)[C@H](CCCCN)NC(=O)[C@H](CC(=O)O)NC(=O)[C@H](CC(C)C)NC(=O)[C@H](Cc1ccc(O)cc1)NC(=O)[C@@H](NC(=O)[C@H](CO)NC(=O)[C@H](Cc1ccc(O)cc1)NC(=O)[C@H](CC(=O)O)NC(=O)[C@H](CO)NC(=O)[C@@H](NC(=O)[C@H](Cc1ccccc1)NC(=O)[C@@H](NC(=O)CNC(=O)[C@H](CCC(=O)O)NC(=O)C(C)(C)NC(=O)CCN1CCCCC1=O)[C@@H](C)O)[C@@H](C)O)[C@@H](C)CC)C(C)C)C(N)=O)C(=O)O` [Compound 210], the Emax amounted to 90% in assay [1] (Table 3A) and 40% in assay [3] (Table 3A). For the same molecule, the EC50 is under 0.1 nM in assay [1] (Table 3A, read-out: EC50 GLP-1R/nM); 10 to 1000 nM in assay [2] (PathHunter β-arrestin assay, read-out: β-arrestin activity EC50); 10 to 100 nM in assay [3] (Table 3A, read-out: EC50 GIP-R/nM).
As to `CCCCCCCCCCCCCCCC(=O)N[C@@H](CCC(=O)NCCCC[C@H](NC(=O)[C@H](CO)NC(=O)[C@@H]1CCCN1C(=O)[C@@H]1CCCN1C(=O)[C@@H]1CCCN1C(=O)[C@H](C)NC(=O)CNC(=O)[C@H](CO)NC(=O)[C@H](CO)NC(=O)[C@@H]1CCCN1C(=O)CNC(=O)CNC(=O)[C@H](C)NC(=O)[C@H](CC(C)C)NC(=O)[C@H](CC(C)C)NC(=O)[C@H](Cc1c[nH]c2ccccc12)NC(=O)[C@H](CC(N)=O)NC(=O)[C@@H](NC(=O)[C@H](Cc1ccccc1)NC(=O)[C@H](CCC(=O)O)NC(=O)C(C)(C)NC(=O)[C@H](C)NC(=O)[C@H](C)NC(=O)[C@H](CCC(N)=O)NC(=O)[C@H](CCCCN)NC(=O)[C@H](CC(=O)O)NC(=O)[C@H](CC(C)C)NC(=O)[C@H](Cc1ccc(O)cc1)NC(=O)[C@@H](NC(=O)[C@H](CO)NC(=O)[C@H](Cc1ccc(O)cc1)NC(=O)[C@H](CC(=O)O)NC(=O)[C@H](CO)NC(=O)[C@@H](NC(=O)[C@H](Cc1ccccc1)NC(=O)[C@@H](NC(=O)CNC(=O)[C@H](CCC(=O)O)NC(=O)CSCC(=O)NCCN1CCC(C)(C)C1=O)[C@@H](C)O)[C@@H](C)O)[C@@H](C)CC)C(C)C)C(N)=O)C(=O)O` [Compound 35], the EC50 in assay [1] (EC50 GLP-1R/nM, Table 3) was 0.1 to 1 nM; in assay [1] (EC50 GLP-1R/nM, Table 3A), 0.1 to 1 nM; in assay [2], over 1000 nM; in assay [3] (EC50 GIP-R/nM, Table 3), 1 to 10 nM; in assay [3] (read-out: EC50 GIP-R/nM, Table 3A), 1 to 100 nM. The Emax in assay [1] (Table 3) is 110%; in assay [1] (Table 3A), 110%; in assay [3] (Table 3), 20 to 37%; in assay [3] (Table 3A), 20 to 37%.

For orientation: Emax means the maximal effect, on the per cent scale that the assay sets.

For the origin of these results see patent US20260176320A1, “MODULATORS OF G-PROTEIN COUPLED RECEPTORS” (priority 2018, published 2026).
